Columns and labels:
Alopecurus = assay: Post-emergence greenhouse pot trial, annual blackgrass (Example I, Table I); assay type: in vivo, annual blackgrass (Alopecurus); conditions: greenhouse pots, 4 weeks
Method: (§1) Seeds of weed grasses were sown in pots filled with loamy soil and placed in the greenhouse for germination and emergence. As soon as the plants had developed 3 or 4 leaves, they were sprayed with wettable powder formulations, suspended in water, of compounds according to the invention.
(§2) The results and also the results of all following examples were evaluated 4 weeks later according to the following scheme:
(§3) 4 is still considered an acceptable herbicidal effect in weeds and a satisfactory preserving effect in crop plants (cf. Bolle, Nachrichtenblatt des Deutschen Pflanzenschutzdienstes 16, 1964, pages 92-94).
(§4) Effect on weed grasses in a post-emergence trial in pots
(§5) in the greenhouse (Evaluation scheme)

Digitaria = assay: Post-emergence greenhouse pot trial, Digitaria (Example I, Table I); assay type: in vivo; conditions: greenhouse pots, 4 weeks
Method: as §1, §2, §3, §4, §5

Echinochloa = assay: Post-emergence greenhouse pot trial, Echinochloa (Example I, Table I); assay type: in vivo; conditions: greenhouse pots, 4 weeks
Method: as §1, §2, §3, §4, §5

Setaria = assay: Post-emergence greenhouse pot trial, Setaria (Example I, Table I); assay type: in vivo; conditions: greenhouse pots, 4 weeks
Method: as §1, §2, §3, §4, §5

Lolium = assay: Post-emergence greenhouse pot trial, Lolium (Example I, Table I); assay type: in vivo; conditions: greenhouse pots, 4 weeks
Method: as §1, §2, §3, §4, §5

weed grasses = assay: Pre-emergence greenhouse pot trial, weed grasses overall (Example V); assay type: in vivo; conditions: in words
Method: as §2
In a greenhouse the compounds to be tested were sprayed on the surface of the soil directly after sowing. […] Dicotyledonous crop plants (the same as used in Example I) were not damaged by the applied amounts.
Effect on weed grasses in a pre-emergence process (evalua-
tion scheme) experiment in pots in the greenhouse.

wild oat = assay: Post-emergence trial in the greenhouse, wild oat (Example VII, Table VII); assay type: in vivo; conditions: 31 kg/hectare, emulsion concentrate, 4 weeks after treatment
Method: as §2
In a greenhouse some of the compounds of the invention were sprayed on plants of wild oat, the compounds being used as emulsion concentrates.
(§6) Post-emergence trial in the greenhouse
Effect on wild oat 4 weeks after treatment
Dose 31 kg/hectare of active compound (as emulsion

barnyard grass = assay: Post-emergence trial in the greenhouse, barnyard grass (Example VIII, Table VIII); assay type: in vivo; conditions: 31 kg/hectare, wettable powder, 4 weeks after treatment, 3 to 4 leaf-stage
Method: as §2
In a similar trial some of the compounds of the invention were sprayed in the form of wettable powder formulations on barnyard grass in the 3 to 4 leaf-stage.
as §6
Effect on barnyard grass 4 weeks after treatment
Dose 31 kg/hectare of active compound (as wettable

| SMILES | Effect on weed grasses (evaluation scheme number), Alopecurus (Alopecurus; 0.15 kg/hectare) | Effect on weed grasses (evaluation scheme number), Alopecurus (Alopecurus; 0.62 kg/hectare) | Effect on weed grasses (evaluation scheme number), Alopecurus (Alopecurus; 2.5 kg/hectare) | Effect on weed grasses (evaluation scheme number), Digitaria (Digitaria; 0.15 kg/hectare) | Effect on weed grasses (evaluation scheme number), Digitaria (Digitaria; 0.62 kg/hectare) | Effect on weed grasses (evaluation scheme number), Digitaria (Digitaria; 2.5 kg/hectare) | Effect on weed grasses (evaluation scheme number), Echinochloa (Echinochloa; 0.15 kg/hectare) | Effect on weed grasses (evaluation scheme number), Echinochloa (Echinochloa; 0.62 kg/hectare) | Effect on weed grasses (evaluation scheme number), Echinochloa (Echinochloa; 2.5 kg/hectare) | Effect on weed grasses (evaluation scheme number), Setaria (Setaria; 0.15 kg/hectare) | Effect on weed grasses (evaluation scheme number), Setaria (Setaria; 0.62 kg/hectare) | Effect on weed grasses (evaluation scheme number), Setaria (Setaria; 2.5 kg/hectare) | Effect on weed grasses (evaluation scheme number), Lolium (Lolium; 0.15 kg/hectare) | Effect on weed grasses (evaluation scheme number), Lolium (Lolium; 0.62 kg/hectare) | Effect on weed grasses (evaluation scheme number), Lolium (Lolium; 2.5 kg/hectare) | effect in pre-emergence treatment compared with comparative compound A (weed grasses) | effect (number) on wild oat (wild oat) | effect (number) on barnyard grass (barnyard grass) |
| --- | --- | --- | --- | --- | --- | --- | --- | --- | --- | --- | --- | --- | --- | --- | --- | --- | --- | --- |
| CCOC(=O)C(C)Oc1ccc(Oc2ccc(Br)cc2Cl)cc1 (stereo not drawn) [Compound 1b, 4-(2'-chloro-4'-bromophenoxy)-α-phenoxy-propionic acid ethyl ester] | 6 (75.0 to <85.0) | 1 (100) | 1 (100) | 7 (65.0 to <75.0) | 1 (100) | 1 (100) | 1 (100) | 1 (100) | 1 (100) | 1 (100) | 1 (100) | 1 (100) | 6 (75.0 to <85.0) | 2 (97.5 to <100) | 1 (100) | Analogous results | 1 (100) | – |
| CC(C)OC(=O)C(C)Oc1ccc(Oc2ccc(Br)cc2Cl)cc1 (stereo not drawn) [Compound 1c, 4-(2'-chloro-4'-bromophenoxy)-α-phenoxy-propionic acid isopropyl ester] | 6 (75.0 to <85.0) | 3 (95.0 to <.97.5) | 1 (100) | 7 (65.0 to <75.0) | 4 (90.0 to <95.0) | 1 (100) | 1 (100) | 1 (100) | 1 (100) | 3 (95.0 to <.97.5) | 1 (100) | 1 (100) | 5 (85.0 to <90.0) | 4 (90.0 to <95.0) | 3 (95.0 to <.97.5) | Analogous results | 1 (100) | 1 (100) |
| CCCCOC(=O)C(C)Oc1ccc(Oc2ccc(Br)cc2Cl)cc1 (stereo not drawn) [Compound 1d, 4-(2'-chloro-4'-bromophenoxy)-α-phenoxy-propionic acid n-butyl ester] | 3 (95.0 to <.97.5) | 2 (97.5 to <100) | 1 (100) | 6 (75.0 to <85.0) | 1 (100) | 1 (100) | 2 (97.5 to <100) | 1 (100) | 1 (100) | 2 (97.5 to <100) | 1 (100) | 1 (100) | 6 (75.0 to <85.0) | 4 (90.0 to <95.0) | 2 (97.5 to <100) | Analogous results | 1 (100) | – |
| CC(C)COC(=O)C(C)Oc1ccc(Oc2ccc(Br)cc2Cl)cc1 (stereo not drawn) [Compound 1e, 4-(2'-chloro-4'-bromophenoxy)-α-phenoxy-propionic acid isobutyl ester] | – | – | – | – | – | – | – | – | – | – | – | – | – | – | – | – | 2 (97.5 to <100) | – |
| CC(Oc1ccc(Oc2ccc(Br)cc2Cl)cc1)C(=O)O (stereo not drawn) [Compound 2b] | – | – | – | – | – | – | – | – | – | – | – | – | – | – | – | – | – | 3 (95.0 to <.97.5) |
| CC(Oc1ccc(Oc2ccc(Br)cc2Cl)cc1)C(=O)O (stereo not drawn) [Compound 2c] | – | – | – | – | – | – | – | – | – | – | – | – | – | – | – | – | – | 1 (100) |
| CC(Oc1ccc(Oc2ccc(Br)cc2Cl)cc1)C(=O)O (stereo not drawn) [Compound 2d] | – | – | – | – | – | – | – | – | – | – | – | – | – | – | – | – | – | 1 (100) |
| CC(Oc1ccc(Oc2ccc(Br)cc2Cl)cc1)C(=O)O (stereo not drawn) [Compound 2e] | – | – | – | – | – | – | – | – | – | – | – | – | – | – | – | – | – | 4 (90.0 to <95.0) |

From patent US4370489A, “Herbicidal compounds” (Hoechst Aktiengesellschaft, priority 1976, dated 1983)
